Experiments:
[1] = target: T1, α1β1γ2 GABAA receptor (Homo sapiens, UniProt P14867+P18505+P18507); assay: FLIPR modulation of GABAA receptor subtype in expressing cells; format: cell-based; conditions: cells exposed to GABA plus compound, — = value not measurable
T1 construct: expressed in transfected cells
Procedure: (§1) Cells expressing the indicated GABAA receptor subtype were exposed to gamma-aminobutyric acid in the presence of varying concentrations of either CV-10155 or SPNC-019, calcium flux was measured using a fluorometric imaging plate reader (FLIPR), and EC50 values for compounds were determined.

[2] = target: T2, α6β1γ2 GABAA receptor (Homo sapiens, UniProt P18505+P18507+Q16445); assay: as above; format: cell-based; conditions: cells exposed to GABA plus compound, — = value not measurable
T2 construct: expressed in transfected cells
T2 sequence (Q16445 20-453): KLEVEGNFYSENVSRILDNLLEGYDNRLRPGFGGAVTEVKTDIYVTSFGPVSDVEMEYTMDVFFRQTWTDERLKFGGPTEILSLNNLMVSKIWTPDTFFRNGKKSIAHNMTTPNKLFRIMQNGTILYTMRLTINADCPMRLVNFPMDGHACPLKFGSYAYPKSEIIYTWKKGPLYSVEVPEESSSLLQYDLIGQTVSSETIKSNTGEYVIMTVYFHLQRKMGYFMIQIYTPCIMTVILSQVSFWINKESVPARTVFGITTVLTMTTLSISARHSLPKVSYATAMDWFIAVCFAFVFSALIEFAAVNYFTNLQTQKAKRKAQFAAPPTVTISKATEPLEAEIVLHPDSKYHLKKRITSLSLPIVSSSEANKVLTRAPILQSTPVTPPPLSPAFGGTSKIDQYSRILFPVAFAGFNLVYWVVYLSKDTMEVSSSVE
T2 sequence (P18505 26-474): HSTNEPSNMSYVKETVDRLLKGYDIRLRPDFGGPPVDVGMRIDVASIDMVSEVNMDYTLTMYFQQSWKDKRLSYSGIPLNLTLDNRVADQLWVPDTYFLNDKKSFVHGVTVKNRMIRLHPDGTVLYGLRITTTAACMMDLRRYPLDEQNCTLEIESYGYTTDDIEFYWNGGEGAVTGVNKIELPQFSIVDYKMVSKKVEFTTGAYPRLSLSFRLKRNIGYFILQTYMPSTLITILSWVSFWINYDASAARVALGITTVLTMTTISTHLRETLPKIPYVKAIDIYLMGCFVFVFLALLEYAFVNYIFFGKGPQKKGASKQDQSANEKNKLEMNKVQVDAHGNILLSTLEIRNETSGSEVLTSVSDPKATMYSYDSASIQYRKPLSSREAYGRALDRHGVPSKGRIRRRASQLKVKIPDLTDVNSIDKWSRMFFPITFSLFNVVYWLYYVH
T2 sequence (P18507 40-475): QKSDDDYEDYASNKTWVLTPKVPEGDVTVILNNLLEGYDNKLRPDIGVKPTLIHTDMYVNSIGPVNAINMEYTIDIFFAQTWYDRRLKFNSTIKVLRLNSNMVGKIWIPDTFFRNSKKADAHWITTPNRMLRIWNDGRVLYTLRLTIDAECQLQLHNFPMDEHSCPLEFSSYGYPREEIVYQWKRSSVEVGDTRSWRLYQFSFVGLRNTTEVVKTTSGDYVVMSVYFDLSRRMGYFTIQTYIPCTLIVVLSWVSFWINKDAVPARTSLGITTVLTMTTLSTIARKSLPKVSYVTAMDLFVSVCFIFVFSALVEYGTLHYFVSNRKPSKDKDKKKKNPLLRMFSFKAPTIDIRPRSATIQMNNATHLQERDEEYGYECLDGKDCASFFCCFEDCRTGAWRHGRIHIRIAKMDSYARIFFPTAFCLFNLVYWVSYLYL
Procedure: as §1

[3] = target: T3, α1β2γ2 GABAA receptor (Homo sapiens, UniProt P14867+P18507+P47870); assay: as above; format: cell-based; conditions: cells exposed to GABA plus compound, — = value not measurable
T3 construct: expressed in transfected cells
T3 sequence (P14867 28-456): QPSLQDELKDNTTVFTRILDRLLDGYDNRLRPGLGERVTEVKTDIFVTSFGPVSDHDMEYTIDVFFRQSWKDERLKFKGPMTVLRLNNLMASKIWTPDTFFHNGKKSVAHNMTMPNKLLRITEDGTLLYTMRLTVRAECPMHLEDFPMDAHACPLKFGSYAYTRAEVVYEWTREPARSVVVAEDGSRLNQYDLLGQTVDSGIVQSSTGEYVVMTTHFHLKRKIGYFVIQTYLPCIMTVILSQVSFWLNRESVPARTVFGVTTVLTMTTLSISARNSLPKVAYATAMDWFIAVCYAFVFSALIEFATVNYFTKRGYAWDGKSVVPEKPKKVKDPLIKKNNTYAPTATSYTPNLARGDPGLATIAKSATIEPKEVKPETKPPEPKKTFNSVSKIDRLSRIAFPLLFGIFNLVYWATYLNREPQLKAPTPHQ
T3 sequence (P47870 25-512 limits assumed): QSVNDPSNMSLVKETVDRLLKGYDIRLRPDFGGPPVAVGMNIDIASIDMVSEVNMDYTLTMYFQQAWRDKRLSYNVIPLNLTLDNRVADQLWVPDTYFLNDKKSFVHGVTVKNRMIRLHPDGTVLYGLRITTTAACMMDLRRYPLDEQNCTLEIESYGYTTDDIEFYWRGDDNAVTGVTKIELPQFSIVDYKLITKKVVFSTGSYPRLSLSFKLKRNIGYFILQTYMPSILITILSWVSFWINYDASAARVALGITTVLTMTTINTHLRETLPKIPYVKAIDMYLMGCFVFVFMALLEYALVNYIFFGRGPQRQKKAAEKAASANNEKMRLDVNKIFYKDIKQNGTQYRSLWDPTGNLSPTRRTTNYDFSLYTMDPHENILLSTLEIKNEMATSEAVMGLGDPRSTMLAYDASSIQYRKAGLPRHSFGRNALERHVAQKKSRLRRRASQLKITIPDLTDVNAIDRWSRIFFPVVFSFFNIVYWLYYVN
T3 sequence (P18507 40-475): as the sequence (P18507 40-475) above
Procedure: as §1

[4] = target: T4, α2β3γ2 GABAA receptor (Homo sapiens, UniProt P18507+P28472+P47869); assay: as above; format: cell-based; conditions: cells exposed to GABA plus compound, — = value not measurable
T4 construct: expressed in transfected cells
Procedure: as §1

[5] = target: T5, α6β2γ2 GABAA receptor (Homo sapiens, UniProt P18507+P47870+Q16445); assay: as above; format: cell-based; conditions: cells exposed to GABA plus compound, — = value not measurable
T5 construct: expressed in transfected cells
T5 sequence (Q16445 20-453): as the sequence (Q16445 20-453) above
T5 sequence (P47870 25-512 limits assumed): as the sequence (P47870 25-512 limits assumed) above
T5 sequence (P18507 40-475): as the sequence (P18507 40-475) above
Procedure: as §1

[6] = target: T6, α3β1γ2 GABAA receptor (Homo sapiens, UniProt P18505+P18507+P34903); assay: as above; format: cell-based; conditions: cells exposed to GABA plus compound, — = value not measurable
T6 construct: expressed in transfected cells
Procedure: as §1

[7] = target: T7, α2β2γ2 GABAA receptor (Homo sapiens, UniProt P18507+P47869+P47870); assay: as above; format: cell-based; conditions: cells exposed to GABA plus compound, — = value not measurable
T7 construct: expressed in transfected cells
Procedure: as §1

[8] = target: T8, α1β3γ2 GABAA receptor (Homo sapiens, UniProt P14867+P18507+P28472); assay: as above; format: cell-based; conditions: cells exposed to GABA plus compound, — = value not measurable
T8 construct: expressed in transfected cells
Procedure: as §1

[9] = target: T9, α5β2γ2 GABAA receptor (Homo sapiens, UniProt P18507+P31644+P47870); assay: as above; format: cell-based; conditions: cells exposed to GABA plus compound, — = value not measurable
T9 construct: expressed in transfected cells
T9 sequence (P31644 32-462): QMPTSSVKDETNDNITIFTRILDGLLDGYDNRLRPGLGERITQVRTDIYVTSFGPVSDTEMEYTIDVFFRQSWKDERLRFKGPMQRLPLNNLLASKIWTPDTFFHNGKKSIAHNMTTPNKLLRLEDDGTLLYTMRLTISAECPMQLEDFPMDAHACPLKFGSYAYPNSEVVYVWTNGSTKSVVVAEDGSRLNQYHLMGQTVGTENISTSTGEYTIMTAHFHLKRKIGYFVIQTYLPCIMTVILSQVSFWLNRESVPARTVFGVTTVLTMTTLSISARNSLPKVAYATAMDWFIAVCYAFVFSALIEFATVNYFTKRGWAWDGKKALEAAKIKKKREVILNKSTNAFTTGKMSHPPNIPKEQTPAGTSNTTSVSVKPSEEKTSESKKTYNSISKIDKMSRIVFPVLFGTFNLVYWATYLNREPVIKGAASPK
T9 sequence (P47870 25-512 limits assumed): as the sequence (P47870 25-512 limits assumed) above
T9 sequence (P18507 40-475): as the sequence (P18507 40-475) above
Procedure: as §1

[10] = target: T10, α5β1γ2 GABAA receptor (Homo sapiens, UniProt P18505+P18507+P31644); assay: as above; format: cell-based; conditions: cells exposed to GABA plus compound, — = value not measurable
T10 construct: expressed in transfected cells
T10 sequence (P31644 32-462): as the sequence (P31644 32-462) above
T10 sequence (P18505 26-474): as the sequence (P18505 26-474) above
T10 sequence (P18507 40-475): as the sequence (P18507 40-475) above
Procedure: as §1

[11] = target: T11, α4β3γ2 GABAA receptor (Homo sapiens, UniProt P18507+P28472+P48169); assay: as above; format: cell-based; conditions: cells exposed to GABA plus compound, — = value not measurable
T11 construct: expressed in transfected cells
Procedure: as §1

[12] = target: T12, α3β2γ2 GABAA receptor (Homo sapiens, UniProt P18507+P34903+P47870); assay: as above; format: cell-based; conditions: cells exposed to GABA plus compound, — = value not measurable
T12 construct: expressed in transfected cells
Procedure: as §1

[13] = target: T13, α6β3γ2 GABAA receptor (Homo sapiens, UniProt P18507+P28472+Q16445); assay: as above; format: cell-based; conditions: cells exposed to GABA plus compound, — = value not measurable
T13 construct: expressed in transfected cells
T13 sequence (Q16445 20-453): as the sequence (Q16445 20-453) above
T13 sequence (P28472 26-473): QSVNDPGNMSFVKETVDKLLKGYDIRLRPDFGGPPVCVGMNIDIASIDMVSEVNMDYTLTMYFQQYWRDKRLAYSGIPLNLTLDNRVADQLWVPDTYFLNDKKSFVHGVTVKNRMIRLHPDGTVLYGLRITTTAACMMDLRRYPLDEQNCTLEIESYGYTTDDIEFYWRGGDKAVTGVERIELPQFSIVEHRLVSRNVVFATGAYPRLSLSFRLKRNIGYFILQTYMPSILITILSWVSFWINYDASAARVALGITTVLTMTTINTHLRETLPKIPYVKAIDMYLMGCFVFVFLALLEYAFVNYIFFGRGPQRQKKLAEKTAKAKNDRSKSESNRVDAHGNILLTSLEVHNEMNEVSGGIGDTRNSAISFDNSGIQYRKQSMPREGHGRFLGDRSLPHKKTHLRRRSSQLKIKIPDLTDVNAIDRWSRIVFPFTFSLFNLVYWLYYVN
T13 sequence (P18507 40-475): as the sequence (P18507 40-475) above
Procedure: as §1

[14] = target: T14, α2β1γ2 GABAA receptor (Homo sapiens, UniProt P18505+P18507+P47869); assay: as above; format: cell-based; conditions: cells exposed to GABA plus compound, — = value not measurable
T14 construct: expressed in transfected cells
Procedure: as §1

[15] = target: T15, α3β3γ2 GABAA receptor (Homo sapiens, UniProt P18507+P28472+P34903); assay: as above; format: cell-based; conditions: cells exposed to GABA plus compound, — = value not measurable
T15 construct: expressed in transfected cells
Procedure: as §1

[16] = target: T16, α4β1γ2 GABAA receptor (Homo sapiens, UniProt P18505+P18507+P48169); assay: as above; format: cell-based; conditions: cells exposed to GABA plus compound, — = value not measurable
T16 construct: expressed in transfected cells
T16 sequence (P48169 36-554): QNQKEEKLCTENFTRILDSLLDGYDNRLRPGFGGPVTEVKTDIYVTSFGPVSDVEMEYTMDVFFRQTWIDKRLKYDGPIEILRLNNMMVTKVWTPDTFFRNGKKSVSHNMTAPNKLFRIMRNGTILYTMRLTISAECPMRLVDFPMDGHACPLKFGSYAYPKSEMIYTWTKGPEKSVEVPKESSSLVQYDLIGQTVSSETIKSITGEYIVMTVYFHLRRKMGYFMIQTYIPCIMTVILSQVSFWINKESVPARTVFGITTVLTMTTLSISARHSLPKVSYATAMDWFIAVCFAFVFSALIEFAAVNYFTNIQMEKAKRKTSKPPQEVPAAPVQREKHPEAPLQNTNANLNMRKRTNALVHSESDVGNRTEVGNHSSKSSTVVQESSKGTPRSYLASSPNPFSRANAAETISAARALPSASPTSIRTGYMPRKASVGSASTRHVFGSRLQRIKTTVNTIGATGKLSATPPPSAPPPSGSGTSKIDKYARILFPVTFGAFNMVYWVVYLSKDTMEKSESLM
T16 sequence (P18505 26-474): as the sequence (P18505 26-474) above
T16 sequence (P18507 40-475): as the sequence (P18507 40-475) above
Procedure: as §1

[17] = target: T17, α5β3γ2 GABAA receptor (Homo sapiens, UniProt P18507+P28472+P31644); assay: as above; format: cell-based; conditions: cells exposed to GABA plus compound, — = value not measurable
T17 construct: expressed in transfected cells
T17 sequence (P31644 32-462): as the sequence (P31644 32-462) above
T17 sequence (P28472 26-473): as the sequence (P28472 26-473) above
T17 sequence (P18507 40-475): as the sequence (P18507 40-475) above
Procedure: as §1

[18] = system: GABAA receptor subtypes; assay: FLIPR panel of 18 GABAA receptor subtypes, overall statement; format: cell-based; conditions: 18 subtypes
Procedure: as §1
The only structural difference between CV-10155 and SPNC-019 is the stereochemical configuration of the hydroxyl and methyl groups attached to the carbon atom at position 3 of the steroid core. […] The results further indicate that the isomeric purity of neurosteroid compositions greatly impacts the utility of such compositions as therapeutic agents.

[19] = target: T18, α4β3δ GABAA receptor (Homo sapiens, UniProt O14764+P28472+P48169); assay: FLIPR modulation of GABAA receptor subtype in expressing cells; format: cell-based; parameters: expressed in transfected cells
T18 sequence (P48169 36-554): as the sequence (P48169 36-554) above
T18 sequence (P28472 26-473): as the sequence (P28472 26-473) above
T18 sequence (O14764 25-452): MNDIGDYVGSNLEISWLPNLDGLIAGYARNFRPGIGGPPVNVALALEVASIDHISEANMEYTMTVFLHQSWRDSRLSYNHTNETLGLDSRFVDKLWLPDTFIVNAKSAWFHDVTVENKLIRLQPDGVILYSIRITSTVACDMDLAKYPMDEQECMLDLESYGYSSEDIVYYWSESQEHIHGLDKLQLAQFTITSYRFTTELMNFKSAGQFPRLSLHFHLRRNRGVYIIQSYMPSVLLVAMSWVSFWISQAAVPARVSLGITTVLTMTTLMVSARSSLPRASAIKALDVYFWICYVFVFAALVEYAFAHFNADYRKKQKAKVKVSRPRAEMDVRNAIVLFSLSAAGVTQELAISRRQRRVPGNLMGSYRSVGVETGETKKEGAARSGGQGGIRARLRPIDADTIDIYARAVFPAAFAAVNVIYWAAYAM
Procedure: as §1

[20] = target: picrotoxin binding site of GABAA receptors; conditions: membranes isolated from the cortices of rat brains; Table 1 of WO 2016/061527; read-out: IC50 in the TBPS displacement assay; cited from earlier work
[21] = target: T18, α4β3δ GABAA receptor; parameters: expressed in transfected cells; host or cells: CHO cells (transient); conditions: 10 μM neurosteroid, GABA 2 μM (EC20), CHO cells; Table 2 of WO 2016/061527; cited from earlier work
[22] = target: T3, α1β2γ2 GABAA receptor; conditions: 10 μM neurosteroid, GABA 2 μM (EC20), LTK cells; Table 2 of WO 2016/061527; cited from earlier work

C[C@@]1(O)CC[C@@]2(C)[C@@H](CC[C@@H]3[C@@H]2CC[C@]2(C)[C@@H](C(=O)Cn4cc(C#N)cn4)CC[C@@H]32)C1 [CV-10155]
EC50 [1]: 521 nM
EC50 [2]: 359 nM
EC50 [3]: 839 nM
EC50 [4]: 296 nM
EC50 [5]: 1100 nM
EC50 [6]: 946 nM
EC50 [7]: 213 nM
EC50 [8]: 520 nM
EC50 [9]: 359 nM
EC50 [10]: 762 nM
EC50 [11]: 1330 nM
EC50 [12]: 1820 nM
EC50 [13]: 245 nM
EC50 [14]: 253 nM
EC50 [15]: 273 nM
EC50 [16]: 204 nM
EC50 [17]: 1300 nM
modulating activity across the GABAA receptor subtypes tested [18]: some level of positive allosteric modulating activity in all of the GABAA receptor subtypes tested
EC50 ([19]; FLIPR, cells exposed to GABA plus compound, — = value not measurable): 106 nM
activity on α4β3δ compared with α1β2γ2 GABAA receptors, in words ([19]; data of Example 1): substantially more active on α4β3δ GABAA receptors than on α1β2γ2 GABAA receptors
EC50 for α4β3δ receptors lower than for α1β2γ2 receptors ([19]; isomerically pure composition, α4β3δ versus α1β2γ2): at least 5 fold

C[C@@]1(O)CC[C@@]2(C)[C@H](CC[C@@H]3[C@@H]2CC[C@]2(C)[C@@H](C(=O)Cn4cc(C#N)cn4)CC[C@@H]32)C1 [Compound 10]
IC50 [20]: < 10 nM

C[C@@]1(O)CC[C@@]2(C)[C@@H](CC[C@@H]3[C@@H]2CC[C@]2(C)[C@@H](C(=O)Cn4ccc(C#N)n4)CC[C@@H]32)C1 [Compound 121]
efficacy: relative potentiation of GABA-mediated conductance, α4β3δ [21]: > 500%
IC50 [20]: 10 to 50 nM
efficacy: relative potentiation of GABA-mediated conductance, α1β2γ2 [22]: > 500%

C[C@]1(O)CC[C@@]2(C)[C@@H](CC[C@@H]3[C@@H]2CC[C@]2(C)[C@@H](C(=O)Cn4cc(C#N)cn4)CC[C@@H]32)C1 [SPNC-019, reference compound]
EC50 [9]: 1200 nM
EC50 [13]: 1770 nM
EC50 [17]: 1810 nM
modulating activity across the GABAA receptor subtypes tested [18]: no modulating activity in 15 of the 18 GABAA receptor subtypes tested

Source: patent US10857163B1, “Compositions that preferentially potentiate subtypes of GABAA receptors and methods of use thereof” (priority 2019, dated 2020)
